Entries after “also recorded” stand apart in the source; their conditions may differ.
Assays:
BNPI (VGLUT1) [1] = target: T1, BNPI (VGLUT1) (Rattus norvegicus, UniProt Q62634); experiment: 3H-glutamate uptake by membranes from PC12 cells expressing BNPI; type: biochemical; details: for inhibition of 3H-glutamate uptake by membranes expressing BNPI: 10 mM, uptake at 5 min
T1 construct: expressed in transfected cells; light membranes prepared from them
T1 sequence (Q62634 1-560): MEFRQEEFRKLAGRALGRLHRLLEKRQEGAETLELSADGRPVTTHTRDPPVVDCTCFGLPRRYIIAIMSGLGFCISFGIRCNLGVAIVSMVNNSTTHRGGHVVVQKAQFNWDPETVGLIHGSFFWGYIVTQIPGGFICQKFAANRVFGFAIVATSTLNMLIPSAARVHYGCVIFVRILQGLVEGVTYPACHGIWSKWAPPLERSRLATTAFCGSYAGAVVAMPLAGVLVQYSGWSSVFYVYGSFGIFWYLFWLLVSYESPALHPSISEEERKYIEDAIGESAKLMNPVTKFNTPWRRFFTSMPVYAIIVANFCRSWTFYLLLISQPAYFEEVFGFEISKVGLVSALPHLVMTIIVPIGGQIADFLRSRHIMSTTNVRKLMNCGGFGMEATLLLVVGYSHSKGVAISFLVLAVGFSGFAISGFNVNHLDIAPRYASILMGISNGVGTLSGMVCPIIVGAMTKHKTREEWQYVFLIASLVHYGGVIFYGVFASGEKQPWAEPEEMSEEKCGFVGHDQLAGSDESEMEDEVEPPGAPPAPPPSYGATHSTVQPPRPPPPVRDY
Source text: Rather, the type I transporter NaPi-1 transports organic anions, including phenol red and penicillin G, with substantially higher apparent affinity than Pi (Busch et al. (1996) Proc. Natl. Acad. Sci., USA, 93: 5347). Human genetic studies have shown that mutations in another protein closely related to BNPI and NaPi-1 account for disorders of sialic acid storage (Verheijen et al. (1999) Nature Genet. 23: 462). In these conditions, sialic acid accumulates in lysosomes because of a defect in proton-driven export (Renlund et al. (1986) Science 232: 759; Mancini et al. (1989) J. Biol. Chem. 264: 15247; Tietze et al. (1989) J. Biol. Chem. 264: 15316; Mancini et al. (1992) Proc. Natl. Acad. Sci., USA, 89: 6609). […] To determine whether BNPI mediates the transport of glutamate into synaptic vesicles, we transfected the rat BNPI cDNA into rat pheochromocytoma PC12 cells, which lack detectable endogenous BNPI protein. The rat BNPI cDNA was stably expressed in PC12 cells, and immunofluorescence for BNPI was used to identify the most highly expressing cell clones. Membranes were prepared by homogenizing the washed cells in SH buffer [0.32 M sucrose and 10 mM Hepes-KOH (pH 7.4)] containing protease inhibitors and by pelleting the nuclei at 1000 g for 5 min and the heavier membranes at 27,000 g for 35 min. The supernatant containing lighter membranes was then pelleted at 210,000 g for 1 hour and resuspended in SH buffer with protease inhibitors at a final concentration of ˜10 μg protein/μl.
We then prepared a population of light membranes, including synaptic-like microvesicles, from the transfected and untransfected cells (McIntire et al. (1997) Nature 389: 870) and tested their ability to accumulate 3H-glutamate in the presence of 4 mM chloride and ATP, conditions that optimize glutamate accumulation by native synaptic vesicles (Maycox et al. (1988) J. Biol. Chem., 263: 15423; Carlson et al. […] J. Biol. Chem. 264: 7369). To initiate the transport reaction, we added 10 μl of membranes to 190 μl of SH buffer containing 4 mM KCl, 4 mM MgSO4, 4 mM ATP, and 50 μM 3H-glutamate, with other additions noted in the text and figure legends. The reaction mixture was incubated at 29° C. for varying times, and the uptake was terminated by rapid filtration, followed by immediate washes with 6 ml of cold 0.155 M potassium tartrate and 10 mM Hepes (pH 7.4). Background uptake was determined using membranes prepared from untransfected cells that were incubated for the same amount of time at the same temperature. Transport measurements were performed in duplicate with at least two different preparations of membranes. The Km was calculated by averaging the results of two separate determinations.

BNPI (VGLUT1) [2] = target: T1, BNPI (VGLUT1); experiment: acridine orange fluorescence quenching (vesicle acidification) of BNPI-expressing membranes; type: biochemical; details: for acidification of BNPI-expressing versus control membranes: 90 mM chloride (KCl)
Method: Native synaptic vesicles acidify during glutamate uptake (Maycox et al. (1988) J. Biol. Chem., 263: 15423). Glutamate presumably serves as a counterion for protons and dissipates ΔΨ, enabling the vacuolar H+-ATPase to generate a larger ΔpH, but cotransport of H+ with glutamate remains an alternative possibility. To determine whether acidification also accompanies glutamate transport by BNPI, we used the quenching of acridine orange fluorescence to measure vesicle pH. Membranes (200 μg of protein) were diluted into 2 ml of 0.3 M sucrose and 10 mM tris-Mops (pH 7.4) containing 4 mM MgSO4 and 5 μM acridine orange and incubated at 37° C. with continuous stirring. Fluorescence was monitored with a Hitachi F4500 spectrofluorimeter at an excitation wavelength of 492 nm and emission of 530 nm. Separate measurements were made with at least three different membrane preparations for wild-type and transfected cells; representative tracings are shown in FIG. 5.

Structure (SMILES) | inhibition of 3H-glutamate uptake by membranes expressing BNPI (BNPI (VGLUT1) [1]) | inhibition of 3H-glutamate uptake by membranes expressing BNPI (BNPI (VGLUT1) [1]; listed as L-glutamate) | Km (BNPI (VGLUT1) [1]; initial rate at 1 min, Lineweaver-Burke, untransfected background subtracted, read-out: Km of glutamate transport by BNPI) [µM] | acidification (lumenal pH) of membranes expressing BNPI (BNPI (VGLUT1) [2]; 10 mM glutamate, with ATP and 4 mM KCl) | effect on rate of chloride-dependent acidification of BNPI membranes (BNPI (VGLUT1) [2]; 10 mM, KCl 20, 50, 140 mM) | effect on acidification of BNPI-expressing membranes by chloride (BNPI (VGLUT1) [2]; 10 mM, listed as Glutamate) | effect on acidification of BNPI-expressing membranes by chloride (BNPI (VGLUT1) [2]; 10 mM, listed as glutamate) | 3H-glutamate uptake by BNPI at non-optimal chloride (BNPI (VGLUT1) [1]; 0 and 25 mM chloride) | acidification of BNPI-expressing versus control membranes (BNPI (VGLUT1) [2]) | acidification of BNPI-expressing versus control membranes (BNPI (VGLUT1) [2]; listed as KCl)
N[C@@H](CCC(=O)O)C(=O)O [L-Glutamate] | markedly inhibits | inhibited the uptake | ~2000 | reduced the lumenal pH; also recorded: acidifies membranes expressing BNPI | reduces the rate of acidification | blocks this chloride conductance; also recorded: reduces the acidification | decreased the acidification produced by chloride |  |  | 
Cl [chloride] |  |  |  |  |  |  |  | much less activity detected | produces more acidification | considerably greater

From US6818391B2, “Glutamate transporters” (The Regents of the University of California, priority 2000, dated 2004)
